{"source": "patent US11278564B2", "about": "“Brain function-improving agent, food, and medicine using lipopolysaccharide” (Control of Innate Immunity Technology Research Association, priority 2017, dated 2022)", "origin": "cited, not measured here", "conditions": "intraperitoneal injection (NPL 5)"}
{"substance": "monophosphoryl lipid A [MPL]", "values": [{"measurement": "Aβ intracerebral deposition", "value": "Aβ intracerebral deposition suppressing action"}, {"measurement": "learning function", "value": "learning function-improving action"}]}
